The record followed here is patent US20220370440A1 (Lead Discovery Center GmbH, priority 2018, published 2022).

Where only a bound is given, the exact number is not on record here.

In series [1] the target is T1, HER2 INS YVMA (Homo sapiens, UniProt P04626, INS775YVMA).
T1 construct: purchased DPF
The series is described as follows: Lance Kinase Activity Assay, HER2 INS YVMA (Her2 Exon 20 INSYVMA Lance). The conditions noted are these: biochemical Lance assay. Type of series: biochemical. In short, it runs like this:
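Kinase phosphorylates a ULight-labelled peptide substrate; Eu anti-phospho antibody gives TR-FRET (ex 340 nm, em 665/615 nm). Compounds in 1:3 serial dilution over 8 steps, reaction started with ATP, 1 h at room temperature, stopped with EDTA-containing detection mix for 1 h. IC50 from sigmoidal dose-response curves.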

The target in series [2] is Her2 Exon 20 INSYVMA Ba/F3 (Homo sapiens, UniProt P04626, DUP772-775, cells depend on it). The series is described as follows: Her2 Exon 20 INSYVMA Ba/F3 CellTiter-Glo. Type of series: cell-based. The following applies: CellTiter-Glo, 72 h, read-out: Her2 Exon 20 INSYVMA Ba/F3 CTG IC50. An outline of the steps:
(§1)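 Seed Ba/F3 cells; 24 h, 37 °C/5% CO2. Add cpds in DMSO, multiple concs; 72 h. CellTiter-Glo, 10 min RT, luminescence. IC50 by curve fit. Z′ ≥0.5 from DMSO vs 10 μM staurosporine.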
(In general: In ATP-based viability assays light output follows the ATP content of the culture.)

In series [3] the target is EGFR Exon 20 INSNPH Ba/F3 (Homo sapiens, UniProt P00533, DUP771-773, cells depend on it). Description: EGFR Exon 20 INSNPH Ba/F3 CellTiter-Glo. The following applies: CellTiter-Glo, 72 h, read-out: EGFR Exon 20 INSNPH Ba/F3 CTG IC50. Type of series: cell-based. In short, it runs like this:
as §1

Series [4] deals with EGFR T790ML858R (Homo sapiens, UniProt P00533, L858R/T790M). Description: EGFR T790ML858R Lance assay. Type of series: biochemical. As to the method:
(§2) Inhibition is indicated as […] [nM] (“−”=not measured). Compounds having an activity designated as “A” provided an IC50≤100 nM; compounds having an activity designated as “B” provided an 100 nM<IC50≤500 nM; compounds having an activity designated as “C” provided an 500 nM<IC50≤1000 nM; compounds having an activity designated as “D” provided an 1000 nM<IC50≤100000 nM; and compounds having an activity designated as “E” provided an IC50>10000 nM.

The target of series [5] is EGFR wt (Homo sapiens, UniProt P00533). The series is described as follows: EGFR wt Lance assay. Format: biochemical. As for the experimental part: as §2
Chain of EGFR wt (P00533 25-1210): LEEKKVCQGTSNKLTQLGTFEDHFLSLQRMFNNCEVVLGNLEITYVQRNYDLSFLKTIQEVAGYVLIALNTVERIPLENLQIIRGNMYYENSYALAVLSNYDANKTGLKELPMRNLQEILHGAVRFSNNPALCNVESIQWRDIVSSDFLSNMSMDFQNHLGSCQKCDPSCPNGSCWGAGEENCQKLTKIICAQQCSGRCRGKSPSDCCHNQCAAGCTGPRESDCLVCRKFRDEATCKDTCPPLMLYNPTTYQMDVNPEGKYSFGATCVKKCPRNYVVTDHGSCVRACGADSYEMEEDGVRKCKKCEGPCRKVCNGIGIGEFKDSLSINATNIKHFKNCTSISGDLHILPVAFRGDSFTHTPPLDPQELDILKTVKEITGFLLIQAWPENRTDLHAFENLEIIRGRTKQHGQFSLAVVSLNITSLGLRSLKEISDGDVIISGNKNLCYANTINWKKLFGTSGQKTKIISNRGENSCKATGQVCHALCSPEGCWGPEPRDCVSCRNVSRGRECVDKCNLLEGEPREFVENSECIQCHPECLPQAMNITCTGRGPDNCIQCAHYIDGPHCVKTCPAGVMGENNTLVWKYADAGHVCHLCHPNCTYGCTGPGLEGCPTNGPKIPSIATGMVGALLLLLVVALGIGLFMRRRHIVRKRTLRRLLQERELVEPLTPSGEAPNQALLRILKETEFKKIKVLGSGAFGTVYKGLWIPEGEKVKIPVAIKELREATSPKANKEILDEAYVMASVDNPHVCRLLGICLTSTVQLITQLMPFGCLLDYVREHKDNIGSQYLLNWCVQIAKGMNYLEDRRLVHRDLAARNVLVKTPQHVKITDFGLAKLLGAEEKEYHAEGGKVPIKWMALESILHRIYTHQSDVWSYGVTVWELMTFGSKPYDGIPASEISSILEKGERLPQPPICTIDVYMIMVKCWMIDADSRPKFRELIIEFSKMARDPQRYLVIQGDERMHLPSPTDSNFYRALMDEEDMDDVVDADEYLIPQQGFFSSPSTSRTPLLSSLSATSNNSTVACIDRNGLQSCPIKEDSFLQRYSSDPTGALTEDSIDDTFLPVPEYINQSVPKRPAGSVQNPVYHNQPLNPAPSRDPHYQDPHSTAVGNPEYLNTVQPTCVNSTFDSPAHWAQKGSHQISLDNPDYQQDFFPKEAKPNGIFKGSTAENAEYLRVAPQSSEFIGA
Series [6] has as its system H1975. The series is described as follows: H1975 CellTiter-Glo. Type of series: cell-based. The following applies: Homo sapiens, NCI-H1975; 72 h compound incubation; read-out: H1975 CTG IC50. In short, it runs like this:
(§3)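 Luminescence from cellular ATP serves as the viability signal after cells are treated with compound dilutions for 72 h at 37° C. IC50 is derived by curve fitting, with DMSO-treated and 10 μM Staurosporine-treated wells defining the assay window.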

For series [7], the system named is A431. Description: A431 CellTiter-Glo. Format: cell-based. The conditions noted are these: Homo sapiens, A-431; 72 h compound incubation; read-out: A431 CTG IC50. An outline of the steps:
as §3

Series [8] in a line: Metabolic stability in mouse liver microsomes without cofactor NADPH. Type of series: in vitro ADME. The conditions noted are these: 3 μM test compound, mouse liver microsomes, without NADPH, 50 min, 37° C., LC-MS/MS. An outline of the steps: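 Test compound (3 μM) was incubated with mouse liver microsomes without NADPH at 37° C. Depletion was followed by LC-MS/MS over time up to 50 min.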

Chain of EGFR Exon 20 INSNPH Ba/F3 (P00533 with tags, fused parts or gaps DUP771-773): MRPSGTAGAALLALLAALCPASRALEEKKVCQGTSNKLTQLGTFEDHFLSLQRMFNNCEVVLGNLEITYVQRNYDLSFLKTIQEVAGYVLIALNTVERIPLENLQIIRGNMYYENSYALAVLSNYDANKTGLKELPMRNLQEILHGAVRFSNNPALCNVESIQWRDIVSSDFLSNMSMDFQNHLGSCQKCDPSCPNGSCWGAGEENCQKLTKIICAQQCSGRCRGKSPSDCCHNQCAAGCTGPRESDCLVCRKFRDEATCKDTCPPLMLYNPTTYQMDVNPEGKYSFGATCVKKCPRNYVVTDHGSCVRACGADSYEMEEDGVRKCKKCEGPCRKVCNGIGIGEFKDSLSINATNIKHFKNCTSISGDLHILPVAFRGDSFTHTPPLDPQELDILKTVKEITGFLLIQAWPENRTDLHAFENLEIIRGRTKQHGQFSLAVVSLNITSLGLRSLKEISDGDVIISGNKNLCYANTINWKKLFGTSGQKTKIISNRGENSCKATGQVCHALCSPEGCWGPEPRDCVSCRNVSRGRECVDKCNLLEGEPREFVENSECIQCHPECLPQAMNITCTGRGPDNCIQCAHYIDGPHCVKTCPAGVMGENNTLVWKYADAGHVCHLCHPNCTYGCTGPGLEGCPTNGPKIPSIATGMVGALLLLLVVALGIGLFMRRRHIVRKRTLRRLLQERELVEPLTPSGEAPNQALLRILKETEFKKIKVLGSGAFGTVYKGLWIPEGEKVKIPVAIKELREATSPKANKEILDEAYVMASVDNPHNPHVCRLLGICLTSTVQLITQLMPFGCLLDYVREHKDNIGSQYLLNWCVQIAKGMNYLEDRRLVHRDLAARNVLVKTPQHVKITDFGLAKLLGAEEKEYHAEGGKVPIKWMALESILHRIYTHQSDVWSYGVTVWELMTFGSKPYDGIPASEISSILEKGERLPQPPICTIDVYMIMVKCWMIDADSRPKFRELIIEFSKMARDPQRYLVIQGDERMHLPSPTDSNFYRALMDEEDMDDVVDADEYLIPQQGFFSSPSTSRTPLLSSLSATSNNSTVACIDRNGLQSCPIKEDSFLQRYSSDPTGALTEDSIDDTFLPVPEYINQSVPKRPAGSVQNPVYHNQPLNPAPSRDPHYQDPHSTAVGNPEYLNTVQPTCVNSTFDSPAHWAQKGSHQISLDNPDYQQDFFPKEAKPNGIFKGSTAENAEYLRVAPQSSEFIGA
Chain of EGFR T790ML858R (P00533 25-1210 T790M/L858R): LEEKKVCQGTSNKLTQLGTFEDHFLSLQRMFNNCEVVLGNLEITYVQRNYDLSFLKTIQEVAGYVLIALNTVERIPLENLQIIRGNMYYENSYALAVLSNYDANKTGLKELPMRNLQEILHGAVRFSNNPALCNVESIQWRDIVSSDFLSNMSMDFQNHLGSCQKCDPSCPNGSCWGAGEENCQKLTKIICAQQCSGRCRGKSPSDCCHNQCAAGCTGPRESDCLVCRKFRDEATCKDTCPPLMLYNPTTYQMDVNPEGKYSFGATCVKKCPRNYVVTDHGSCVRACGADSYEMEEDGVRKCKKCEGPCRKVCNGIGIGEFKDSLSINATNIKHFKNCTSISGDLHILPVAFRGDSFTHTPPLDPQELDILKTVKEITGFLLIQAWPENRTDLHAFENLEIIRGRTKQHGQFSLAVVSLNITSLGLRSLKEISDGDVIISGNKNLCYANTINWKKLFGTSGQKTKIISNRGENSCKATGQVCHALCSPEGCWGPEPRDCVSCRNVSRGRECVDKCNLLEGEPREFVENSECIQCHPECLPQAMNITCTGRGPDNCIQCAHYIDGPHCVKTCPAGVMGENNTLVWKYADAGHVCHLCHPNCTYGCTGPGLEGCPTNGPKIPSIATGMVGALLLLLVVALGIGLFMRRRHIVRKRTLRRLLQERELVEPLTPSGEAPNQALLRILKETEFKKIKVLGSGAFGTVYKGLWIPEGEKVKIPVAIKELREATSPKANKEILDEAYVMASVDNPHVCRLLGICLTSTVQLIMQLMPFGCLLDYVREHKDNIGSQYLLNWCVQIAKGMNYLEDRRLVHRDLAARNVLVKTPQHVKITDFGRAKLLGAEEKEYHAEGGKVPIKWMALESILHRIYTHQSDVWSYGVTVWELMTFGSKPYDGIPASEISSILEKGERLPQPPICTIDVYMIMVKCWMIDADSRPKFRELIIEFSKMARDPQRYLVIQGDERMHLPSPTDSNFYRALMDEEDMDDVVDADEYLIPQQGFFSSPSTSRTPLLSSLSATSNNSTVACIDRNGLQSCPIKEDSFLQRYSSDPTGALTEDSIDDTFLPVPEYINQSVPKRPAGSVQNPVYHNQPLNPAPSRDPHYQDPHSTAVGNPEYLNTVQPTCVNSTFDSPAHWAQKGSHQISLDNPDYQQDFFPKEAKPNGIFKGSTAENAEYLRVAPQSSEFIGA
Chain of Her2 Exon 20 INSYVMA Ba/F3 (P04626 with tags, fused parts or gaps DUP772-775): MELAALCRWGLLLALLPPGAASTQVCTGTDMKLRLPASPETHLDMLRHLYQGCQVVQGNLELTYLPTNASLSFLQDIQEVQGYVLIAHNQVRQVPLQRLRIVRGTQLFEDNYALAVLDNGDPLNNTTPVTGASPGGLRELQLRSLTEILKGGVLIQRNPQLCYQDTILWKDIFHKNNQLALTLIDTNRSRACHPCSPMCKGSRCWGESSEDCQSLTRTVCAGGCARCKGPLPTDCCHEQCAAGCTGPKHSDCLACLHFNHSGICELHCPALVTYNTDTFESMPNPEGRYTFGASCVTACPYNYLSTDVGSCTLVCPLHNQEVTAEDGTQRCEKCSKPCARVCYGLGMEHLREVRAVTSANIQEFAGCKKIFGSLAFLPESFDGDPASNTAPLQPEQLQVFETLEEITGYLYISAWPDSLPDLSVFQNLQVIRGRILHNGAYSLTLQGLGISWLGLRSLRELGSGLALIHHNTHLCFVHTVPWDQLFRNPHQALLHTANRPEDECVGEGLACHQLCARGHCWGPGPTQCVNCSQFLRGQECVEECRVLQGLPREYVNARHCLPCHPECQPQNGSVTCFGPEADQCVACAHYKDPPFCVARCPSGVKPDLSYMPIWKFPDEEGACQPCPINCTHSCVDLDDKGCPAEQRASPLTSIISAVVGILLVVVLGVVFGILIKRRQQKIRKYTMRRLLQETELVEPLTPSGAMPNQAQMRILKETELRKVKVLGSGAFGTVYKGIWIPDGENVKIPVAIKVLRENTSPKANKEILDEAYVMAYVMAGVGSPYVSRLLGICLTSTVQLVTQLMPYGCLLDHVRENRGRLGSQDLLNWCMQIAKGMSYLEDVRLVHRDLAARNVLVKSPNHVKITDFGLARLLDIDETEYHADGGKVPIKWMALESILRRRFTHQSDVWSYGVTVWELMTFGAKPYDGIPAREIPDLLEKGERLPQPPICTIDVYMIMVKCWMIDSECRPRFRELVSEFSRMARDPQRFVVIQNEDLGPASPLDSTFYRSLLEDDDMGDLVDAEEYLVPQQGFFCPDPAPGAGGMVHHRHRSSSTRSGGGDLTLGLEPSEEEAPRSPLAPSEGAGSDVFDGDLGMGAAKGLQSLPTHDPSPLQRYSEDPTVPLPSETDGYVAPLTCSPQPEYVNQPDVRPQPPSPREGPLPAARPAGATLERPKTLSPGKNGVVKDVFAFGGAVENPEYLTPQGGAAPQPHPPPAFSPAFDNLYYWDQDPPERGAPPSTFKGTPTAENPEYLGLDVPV

`C=CC(=O)N1CCc2ccc(-c3c(-c4ccc(OCCN5CCCC5)cc4)[nH]c4nccc(OC)c34)cc21` [Example 112, 1-(6-(4-methoxy-2-(4-(2-(pyrrolidin-1-yl)ethoxy)phenyl)-1H-pyrrolo[2,3-b]pyridin-3-yl)indolin-1-yl)prop-2-en-1-one]: the IC50 in series [1] is not above 100 nM; in series [4] it was not above 100 nM; in series [5], not above 100 nM; in series [6], 100 to 500 nM; in series [7], 1000 to 100000 nM. Further, the GI50 in series [2] and in series [3] was 500 to 1000 nM each time. Further, the “Stability in presence of mouse liver microsomes without cofactor NADPH [% remaining after 50 min]” value in series [8] was determined as 79 % remaining after 50 min.

In the case of `C=CC(=O)Nc1cc(-c2c(-c3ccc(N(C)CCN(C)C)cc3)[nH]c3nccc(Cl)c23)ccc1C` [Example 43, N-(5-(4-chloro-2-(4-((2-(dimethylamino)ethyl)(methyl)amino)phenyl)-1H-pyrrolo[2,3-b]pyridin-3-yl)-2-methylphenyl)acrylamide], the IC50 is not above 100 nM in series [1]; not above 100 nM in series [4]; not above 100 nM in series [5]; not above 100 nM in series [6]; 100 to 500 nM in series [7]. Besides, the GI50 in series [2] and in series [3] was not above 100 nM each time. In addition, the “Stability in presence of mouse liver microsomes without cofactor NADPH [% remaining after 50 min]” value in series [8] is on record as more than 99 % remaining after 50 min.

On to `C=CC(=O)Nc1cc(-c2c(-c3ccc(CCN(C)C)cc3)[nH]c3ncc(C(=O)OC(C)C)cc23)ccc1C` [Example 161, isopropyl 3-(3-acrylamido-4-methylphenyl)-2-(4-(2-(dimethylamino)ethyl)phenyl)-1H-pyrrolo[2,3-b]pyridine-5-carboxylate], for which the IC50 is not above 100 nM in series [1]; not above 100 nM in series [4]; not above 100 nM in series [5]; 100 to 500 nM in series [6]; 1000 to 100000 nM in series [7]. Moreover, the GI50 in series [2] and in series [3] was 100 to 500 nM in each case. The “Stability in presence of mouse liver microsomes without cofactor NADPH [% remaining after 50 min]” value in series [8] is more than 99 % remaining after 50 min.

As for `C=CC(=O)Nc1cc(-c2c(-c3ccc(N4CCN(C(C)C)CC4)cc3)[nH]c3nccc(Cl)c23)ccc1C` [Example 41, N-(5-(4-chloro-2-(4-(4-isopropylpiperazin-1-yl)phenyl)-1H-pyrrolo[2,3-b]pyridin-3-yl)-2-methylphenyl)acrylamide], the IC50 was not above 100 nM in series [1]; not above 100 nM in series [4]; not above 100 nM in series [5]; not above 100 nM in series [6]; 100 to 500 nM in series [7]. In addition, the GI50 in series [2] and in series [3] was not above 100 nM in each case. In addition, the “Stability in presence of mouse liver microsomes without cofactor NADPH [% remaining after 50 min]” value in series [8] is reported as more than 99 % remaining after 50 min.

Regarding `C=CC(=O)N1CCCc2ccc(-c3c(-c4ccc(N5CCN(C)CC5)nc4)[nH]c4nccc(Cl)c34)cc21` [Example 93, 1-(7-(4-chloro-2-(6-(4-methylpiperazin-1-yl)pyridin-3-yl)-1H-pyrrolo[2,3-b]pyridin-3-yl)-3,4-dihydroquinolin-1(2H)-yl)prop-2-en-1-one], the IC50 is 100 to 500 nM in series [1]; not above 100 nM in series [4]; not above 100 nM in series [5]; 500 to 1000 nM in series [6]; 1000 to 100000 nM in series [7]. The GI50 was 500 to 1000 nM in series [2] and 1000 to 10000 nM in series [3]. Also, the “Stability in presence of mouse liver microsomes without cofactor NADPH [% remaining after 50 min]” value in series [8] is more than 99 % remaining after 50 min.

`C=CC(=O)N1CCc2ccc(-c3c(-c4ccc(C(=O)N5CCN(C)CC5)cc4)[nH]c4nccc(Cl)c34)cc21` [Example 66, 1-(6-(4-chloro-2-(4-(4-methylpiperazine-1-carbonyl)phenyl)-1H-pyrrolo[2,3-b]pyridin-3-yl)indolin-1-yl)prop-2-en-1-one]: the IC50 in series [1] was not above 100 nM; in series [4] it was not above 100 nM; in series [5] it was not above 100 nM; in series [6], 100 to 500 nM; in series [7] it was 1000 to 100000 nM. Also, the figures for the GI50 in series [2] and in series [3] were 100 to 500 nM and 500 to 1000 nM, respectively. Moreover, in series [8], the “Stability in presence of mouse liver microsomes without cofactor NADPH [% remaining after 50 min]” value is more than 99 % remaining after 50 min.

Regarding `C=CC(=O)Nc1cc(-c2c(-c3cccc(OCCN4CCCC4)c3)[nH]c3nccc(Cl)c23)ccc1C` [Example 37, N-(5-(4-chloro-2-(3-(2-(pyrrolidin-1-yl)ethoxy)phenyl)-1H-pyrrolo[2,3-b]pyridin-3-yl)-2-methylphenyl)acrylamide], the half-maximal inhibitory concentration (IC50) was not above 100 nM in series [1]; not above 100 nM in series [4]; not above 100 nM in series [5]; not above 100 nM in series [6]; 100 to 500 nM in series [7]. In addition, the GI50 in series [2] and in series [3] was 100 to 500 nM throughout. Also, the “Stability in presence of mouse liver microsomes without cofactor NADPH [% remaining after 50 min]” value in series [8] is listed as more than 99 % remaining after 50 min.

As for `C=CC(=O)Nc1cc(-c2c(-c3cccc(CN4CCOCC4)c3)[nH]c3ncccc23)ccc1C` [Example 82, N-(2-methyl-5-(2-(3-(morpholinomethyl)phenyl)-1H-pyrrolo[2,3-b]pyridin-3-yl)phenyl)acrylamide], the IC50 is 1000 to 10000 nM in series [1]; not above 100 nM in series [4]; 100 to 500 nM in series [5]; 500 to 1000 nM in series [6]; 1000 to 100000 nM in series [7]. In addition, the GI50 in series [2] and in series [3] was 1000 to 10000 nM each time. For the same molecule, the “Stability in presence of mouse liver microsomes without cofactor NADPH [% remaining after 50 min]” value in series [8] stood at 97 % remaining after 50 min.

As for `C=CC(=O)N1CCc2ccc(-c3c(-c4ccc(OCCN(C)C)cc4)[nH]c4nccc(Cl)c34)cc21` [Example 67, 1-(6-(4-chloro-2-(4-(2-(dimethylamino)ethoxy)phenyl)-1H-pyrrolo[2,3-b]pyridin-3-yl)indolin-1-yl)prop-2-en-1-one], the half-maximal inhibitory concentration (IC50) is not above 100 nM in series [1]; not above 100 nM in series [4]; not above 100 nM in series [5]; 100 to 500 nM in series [6]; 1000 to 100000 nM in series [7]. Moreover, the GI50 in series [2] and in series [3] was 100 to 500 nM throughout. In addition, in series [8], the “Stability in presence of mouse liver microsomes without cofactor NADPH [% remaining after 50 min]” value is reported as more than 99 % remaining after 50 min.

On to `C=CC(=O)N1CCCc2ccc(-c3c(-c4cccc(OCCN(C)C)c4)[nH]c4nccc(Cl)c34)cc21` [Example 88, 1-(7-(4-chloro-2-(3-(2-(dimethylamino)ethoxy)phenyl)-1H-pyrrolo[2,3-b]pyridin-3-yl)-3,4-dihydroquinolin-1(2H)-yl)prop-2-en-1-one], for which the IC50 in series [1] was not above 100 nM; in series [4] it was not above 100 nM; in series [5], not above 100 nM; in series [6], 100 to 500 nM; in series [7] it was 1000 to 100000 nM. Besides, the GI50 in series [2] and in series [3] was 1000 to 10000 nM in each case. Moreover, in series [8], the “Stability in presence of mouse liver microsomes without cofactor NADPH [% remaining after 50 min]” value was more than 99 % remaining after 50 min.

One may read the IC50 as the concentration that inhibits the measured activity by half.
